Values belong to the compound of their own block, whether it stands above or below them.
Key:
[1] = Average plasma concentration at steady state in mouse at 62 mg/kg administered bid; type: ADME, organism-based; settings: in vivo
[2] = AUC (0 to infinity) in human at 2400 mg administered bid; type: ADME; design: time infinity, dose 2400 mg; settings: in vivo
[3] = Cmax in mouse at 62 mg/kg administered bid; type: ADME, organism-based; design: dose 62 mg/kg; settings: in vivo
[4] = Cmax in male cynomolgus monkey at 75 mg/kg, po measured on day 1; type: ADME, organism-based, Macaca fascicularis; design: route oral, dose 75 mg/kg; settings: in vivo
[5] = Half life in female cynomolgus monkey at 15 mg/kg, iv measured on day 1; type: ADME, organism-based, Macaca fascicularis; settings: in vivo
[6] = Half life in male cynomolgus monkey at 75 mg/kg, po measured on day 1; type: ADME, organism-based, Macaca fascicularis; settings: in vivo
[7] = Apparent oral clearance in male cynomolgus monkey at 75 mg/kg, po measured on day 1; type: ADME, organism-based, Macaca fascicularis; settings: in vivo
[8] = Half life in female cynomolgus monkey at 375 mg/kg, po BID measured on day 8; type: ADME, organism-based, Macaca fascicularis; settings: in vivo
[9] = Half life in rat; type: ADME; settings: in vivo
[10] = Change in normalised Cmax in rat at 50 mg/kg, po measured upto 72 hrs by LC-MS/MS analysis; type: ADME, organism-based; settings: in vivo
[11] = Clearance in female cynomolgus monkey at 15 mg/kg, iv measured on day 1; type: ADME, organism-based, Macaca fascicularis; settings: in vivo, time 1 day
[12] = Stability in mouse plasma assessed as parent compound remaining measured after 2 hrs by LC-MS/MS analysis; type: ADME, cell-free; settings: read-out: Stabilty
[13] = Stability in human plasma assessed as parent compound remaining measured after 6 hrs by LC-MS/MS analysis; type: ADME, cell-free; settings: read-out: Stabilty
[14] = Solubility in water; type: physicochemical
[15] = Solubility of the compound in buffer at pH 1.58 to 6.7; type: physicochemical
[16] = Drug metabolism in CD1 mouse hepatocytes assessed as unmetabolized compound at 10 uM incubated for 120 mins by UPLC-QTOF-PDA analysis; type: ADME, cell-based, Hepatocyte; settings: read-out: Drug metabolism
[17] = Drug metabolism in cynomolgus monkey hepatocytes assessed as unmetabolized compound at 10 uM incubated for 120 mins by UPLC-QTOF-PDA analysis; type: ADME, cell-based, Macaca fascicularis, Hepatocyte; settings: read-out: Drug metabolism
Cytochrome P450 2C19 = Cytochrome P450 2C19 (Homo sapiens, UniProt P33261); assay: Inhibition of CYP2C19 in human hepatocytes; type: ADME, cell-based, Hepatocyte
Cytochrome P450 2B6 [18] = target: T1, Cytochrome P450 2B6 (Homo sapiens, UniProt P20813); assay: Inhibition of CYP2B6 in human hepatocytes; type: ADME, cell-based, Hepatocyte
T1 sequence (P20813 whole entry): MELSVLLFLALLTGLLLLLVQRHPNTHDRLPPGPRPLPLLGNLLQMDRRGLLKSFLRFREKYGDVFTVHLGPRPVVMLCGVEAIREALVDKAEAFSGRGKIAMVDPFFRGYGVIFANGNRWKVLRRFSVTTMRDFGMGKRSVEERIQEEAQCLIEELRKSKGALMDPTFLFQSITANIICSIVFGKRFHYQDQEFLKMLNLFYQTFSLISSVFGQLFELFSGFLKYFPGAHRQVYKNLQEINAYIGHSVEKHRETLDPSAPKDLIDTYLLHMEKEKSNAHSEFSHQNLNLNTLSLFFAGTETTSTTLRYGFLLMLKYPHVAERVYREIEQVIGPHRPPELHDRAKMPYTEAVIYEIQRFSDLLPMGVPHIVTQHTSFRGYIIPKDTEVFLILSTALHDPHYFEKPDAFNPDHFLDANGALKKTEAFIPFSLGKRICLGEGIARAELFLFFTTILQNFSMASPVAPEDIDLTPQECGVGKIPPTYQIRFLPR

Cytochrome P450 2B6 [19] = target: T1, Cytochrome P450 2B6; assay: Induction of CYP2B6 in human hepatocytes; type: ADME, cell-based, Hepatocyte
Cytochrome P450 3A4 = Cytochrome P450 3A4 (Homo sapiens, UniProt P08684); assay: Induction of CYP3A4 in human hepatocytes; type: ADME, cell-based, Hepatocyte
[20] = target: T2, Solute carrier organic anion transporter family member 1B3 (Homo sapiens, UniProt Q9NPD5); assay: Inhibition of OATP1B3 (unknown origin) expressed in HEK293 cells; type: cell-based
T2 sequence (Q9NPD5 whole entry): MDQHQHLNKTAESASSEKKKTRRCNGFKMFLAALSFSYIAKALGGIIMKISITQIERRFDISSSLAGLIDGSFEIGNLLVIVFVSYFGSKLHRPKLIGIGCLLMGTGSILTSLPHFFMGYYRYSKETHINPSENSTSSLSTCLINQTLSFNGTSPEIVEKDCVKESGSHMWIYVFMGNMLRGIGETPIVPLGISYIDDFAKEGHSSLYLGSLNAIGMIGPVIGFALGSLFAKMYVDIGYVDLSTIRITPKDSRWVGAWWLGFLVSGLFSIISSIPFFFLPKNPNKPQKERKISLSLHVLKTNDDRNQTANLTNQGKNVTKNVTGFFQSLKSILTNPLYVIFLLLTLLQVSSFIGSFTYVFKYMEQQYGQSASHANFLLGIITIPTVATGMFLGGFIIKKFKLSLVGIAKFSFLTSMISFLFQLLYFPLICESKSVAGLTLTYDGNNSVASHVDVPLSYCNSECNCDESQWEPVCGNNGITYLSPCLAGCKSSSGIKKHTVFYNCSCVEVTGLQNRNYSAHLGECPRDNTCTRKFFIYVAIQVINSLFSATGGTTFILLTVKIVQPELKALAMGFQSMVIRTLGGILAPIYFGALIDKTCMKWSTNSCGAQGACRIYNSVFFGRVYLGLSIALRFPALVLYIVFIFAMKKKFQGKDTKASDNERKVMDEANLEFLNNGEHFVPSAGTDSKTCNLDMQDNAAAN

[21] = Tmax in female cynomolgus monkey at 75 mg/kg, po measured on day 1; type: ADME, organism-based, Macaca fascicularis; settings: in vivo
[22] = AUC (0 to 24 hrs) in male cynomolgus monkey at 15 mg/kg, iv measured on day 1; type: ADME, organism-based, Macaca fascicularis; design: time < 24 hr, route intravenous, dose 15 mg/kg; settings: in vivo
[23] = Volume of distribution in male cynomolgus monkey at 15 mg/kg, iv measured on day 1; type: ADME, organism-based, Macaca fascicularis; settings: in vivo
[24] = AUC (0 to 24 hrs) in female cynomolgus monkey at 75 mg/kg, po BID measured on day 8; type: ADME, organism-based, Macaca fascicularis; design: time < 24 hr, route oral, dose 75 mg/kg; settings: in vivo
[25] = Drug metabolism in mouse assessed as formation of M9 metabolite at 20 to 900 mg/kg; type: ADME, organism-based; settings: in vivo, dose 20-900 mg/kg
[26] = Drug metabolism in rats assessed as formation of M9 metabolite at 20 to 900 mg/kg; type: ADME, organism-based; settings: rat, in vivo; dose 20-900 mg/kg
[27] = Drug metabolism in rat assessed as indoximod formation by measuring indoximod Tmax at 20 to 900 mg/kg; type: ADME, organism-based; settings: in vivo, dose 20-900 mg/kg
[28] = Drug metabolism in rats assessed as ratio of indoximod to parent compound at 20 to 900 mg/kg, po administered as single dose; type: ADME, organism-based; settings: rat, in vivo, dose 20-900 mg/kg
[29] = Oral bioavailability in male cynomolgus monkey at 75 mg/kg; type: ADME, organism-based, Macaca fascicularis; settings: in vivo
[30] = Protein binding in cynomolgus monkey plasma; type: ADME, cell-free, Macaca fascicularis; settings: read-out: PPB
[31] = Toxicity in po dosed female rat administered twice a day; type: organism-based; settings: in vivo
[32] = Toxicity in po dosed male rat administered twice a day; type: organism-based; settings: in vivo
[33] = AUC (0 to 12 hrs) in female rat at 180 mg/kg, po BID measured on day 28; type: ADME, organism-based; design: time < 12 hr, route oral, dose 180 mg/kg; settings: in vivo
[34] = Toxicity in po BID rat assessed as NOAEL; type: organism-based; settings: in vivo
[35] = Cmax in po BID dosed rat measured on day 28; type: ADME, organism-based; design: route oral, dose 180 mg/kg; settings: in vivo, 180 mg/kg
[36] = Genotoxicity in rat; type: toxicity

Sequence of Cytochrome P450 3A4 (P08684 whole entry): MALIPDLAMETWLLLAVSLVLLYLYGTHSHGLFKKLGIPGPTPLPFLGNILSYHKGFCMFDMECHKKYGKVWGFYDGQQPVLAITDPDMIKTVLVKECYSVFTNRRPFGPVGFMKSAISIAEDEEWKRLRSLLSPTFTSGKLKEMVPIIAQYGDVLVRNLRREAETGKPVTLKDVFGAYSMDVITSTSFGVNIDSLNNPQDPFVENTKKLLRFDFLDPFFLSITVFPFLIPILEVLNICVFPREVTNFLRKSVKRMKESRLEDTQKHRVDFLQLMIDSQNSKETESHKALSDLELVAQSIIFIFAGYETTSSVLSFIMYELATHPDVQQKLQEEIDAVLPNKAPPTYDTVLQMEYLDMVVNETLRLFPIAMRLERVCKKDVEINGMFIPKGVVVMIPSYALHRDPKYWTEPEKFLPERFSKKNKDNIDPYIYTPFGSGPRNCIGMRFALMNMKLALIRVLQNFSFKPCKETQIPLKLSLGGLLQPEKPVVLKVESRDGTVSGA
Sequence of Cytochrome P450 2C19 (P33261 whole entry): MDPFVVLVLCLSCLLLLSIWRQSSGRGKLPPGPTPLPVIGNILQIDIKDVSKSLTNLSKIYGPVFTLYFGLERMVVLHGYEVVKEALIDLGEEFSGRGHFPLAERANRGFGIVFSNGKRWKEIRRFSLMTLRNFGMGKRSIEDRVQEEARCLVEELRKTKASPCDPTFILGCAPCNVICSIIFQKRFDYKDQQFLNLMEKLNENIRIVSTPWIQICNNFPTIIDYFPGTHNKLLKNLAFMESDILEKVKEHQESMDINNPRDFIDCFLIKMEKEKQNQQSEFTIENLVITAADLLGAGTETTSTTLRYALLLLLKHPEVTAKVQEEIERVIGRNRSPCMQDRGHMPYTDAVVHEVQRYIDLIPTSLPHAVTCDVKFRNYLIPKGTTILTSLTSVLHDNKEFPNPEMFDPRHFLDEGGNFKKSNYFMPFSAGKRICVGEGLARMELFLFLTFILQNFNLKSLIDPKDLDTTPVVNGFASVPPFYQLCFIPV

Cave [1]: > 7 µM
AUC(0-inf) [2]: 170 µM·h
Cmax [3]: > 16 µM
Cmax [4]: 74.4 µM
half-life [5]: 1.5 h
half-life [6]: 2.7 h
CL/F [7]: 16.2 mL/min/kg
half-life [8]: 3.8 h
half-life [9]: 30 h
Activity [10]: 0%
clearance [11]: 10.2 mL/min/kg
SMILES: Cn1cc(C[C@@H](N)C(=O)O)c2ccccc21 [INDOXIMOD]

SMILES: CCOC(=O)[C@@H](Cc1cn(C)c2ccccc12)NC(=O)[C@@H](N)CC(C)C.Cl
remaining at 2 h [12]: 0%
remaining at 6 h [13]: 53%
solubility [14]: 19.8 mg/mL
solubility [15]: 16.3 mg/mL
remaining at 2 h, 10 µM [16]: 0.3%
remaining at 2 h, 10 µM [17]: 1.3%
IC50 (Cytochrome P450 2C19): 47 µM
IC50 (Cytochrome P450 2B6 [18]): > 50 µM
Activity (Cytochrome P450 2B6 [19]): Not Active
Activity (Cytochrome P450 3A4): Not Active
IC50 [20]: > 50 µM
Tmax [21]: 2 h
AUC [22]: 0.309 µM·h
Vd [23]: 309 L/kg
AUC at 24 h [24]: 0.0356 µM·h
Drug metabolism [25]: Metabolite_Detected
Drug metabolism [26]: Metabolite_Detected
Tmax [27]: 1 h
Ratio [28]: > 39000
bioavailability [29]: 61.8%
fraction unbound [30]: 0.5
TD10 [31]: 150 mg/kg
TD10 [32]: 150 mg/kg
AUC at 12 h [33]: 1380 µM·h
NOAEL [34]: 60 mg/kg
Cmax [35]: 110 µM
Activity [36]: Non-Toxic

Source: ChEMBL document CHEMBL4837181 (Eur J Med Chem, 2020)
